Experimental data as given in patent US20040086901A1, “Database for analyzing gene function and method of analyzing gene function by dspa” (priority 2000, published 2004).
Non-standard residues stand in square brackets, D forms with d. Residues, ends and D or L forms follow the SMILES beside them. Nle = CCCC[C@H](N)C(=O)O

Legend:
Assay type in all cases: cell-based, mouse
[1] = system: NIH3T3 cells overexpressing RhoA-DN; experiment: MTT cell viability, RhoA-DN overexpressing cells vs parental line; details: RhoA-DN high-expressing cells / parental cell line, 3 to 4 days
Protocol: (§1) With regard to the function-known genes, the genes shown in the left column of Table 2 were used. With regard to the drugs, those shown in Table 1 were dissolved in DMSO to an extent of 100-fold of the maximum concentration for the search of the drugs and used. With regard to the cells, incubated NIH3T3 or ras-NIH3T3 cells were used.
(§2) Full-length cDNA of each function-known genes was incorporated into an expression vector (pRc-CMV, etc.) and transfected into NIH3T3 cells by a common method. Transformed cells were isolated using the resistance to G-418 as an index and the expression of the transfected gene in each cell was investigated by Western blotting method to select a highly expressing line.
(§3) Cell viabilities were measured according to the following procedures.
(§4) 1) From the 2nd to the 11th rows of a 96-well plate were filled with DMEM (50 μl). The 12th row was filled with 100 μl of DMEM.
(§5) 2) The 1st row was filled with 98 μl of DMEM.
(§6) 3) Drugs (2 μl each) were added into the 1st row.
(§7) 4) Continuous double-dilution was conducted from the 1st to the 9th rows. Fifty μl were taken out from the 9th row and discarded. The plate was preserved in a CO2 incubator.
(§8) 5) Cells (each high-expressing cells and the parental cell line) were detached from the medium using a trypsin solution, suspended in 10% CS-DMEM and transferred to a test tube and cell numbers (cell/ml) were counted.
(§9) 6) The cells were diluted to a concentration of 1×10^5 cells/ml, and 50 μl of the cell suspension were added to the 1st to the 11th rows of the plate followed by gently stirring.
(§10) 7) The plate was transferred to the CO2 incubator and incubated for 3 to 4 days.
(§11) 8) MTT (5 mg/ml in PBS) (10 μl) was added to the 1st to the 12th rows of the plate and incubated in the CO2 incubator at 37° C. for 4 hours.
(§12) 9) A reaction stop solution (0.04N HCl in isopropanol) (150 μl) was added followed by mixing well and being allowed to stand at room temperature for about 2 hours.
(§13) 10) Coloration of formazan which was a metabolite of the MTT dye was measured using a microplate reader. The measurement wavelength was 574 nm and the reference wavelength was 655 nm. The 10th and the 11th rows of the plate were 100% controls and the 12th row was a 0% control.
(§14) As an index for the sensitivity of highly gene-expressing cells and the parental cell line to various drugs, each of the IC40 values thereof was specified and ratios of the IC40 values were calculated. […] After that, logarithmic values of ratios of IC40 values were calculated from each gene.

[2] = system: NIH3T3 cells overexpressing CaMKIIa-Active; experiment: MTT cell viability, CaMKIIa-Active overexpressing cells vs parental line; details: CaMKIIa-Active high-expressing cells / parental cell line, 3 to 4 days
Protocol: as §1, §2, §3, §4, §5, §6, §7, §8, §9, §10, §11, §12, §13
As an index for the sensitivity of highly gene-expressing cells and the parental cell line to various drugs, each of the IC40 values thereof was specified and ratios of the IC40 values were calculated. FIG. 2 and FIG. 3 are the examples where ratios of IC40 values were calculated from a curve showing the dependency on the concentration of the chemical versus the viability. After that, logarithmic values of ratios of IC40 values were calculated from each gene.

[3] = system: NIH3T3 cells overexpressing C/EBPa; experiment: MTT cell viability, C/EBPa overexpressing cells vs parental line; details: C/EBPa high-expressing cells / parental cell line, 3 to 4 days
Protocol: as §1, §2, §3, §4, §5, §6, §7, §8, §9, §10, §11, §12, §13, §14

[4] = system: NIH3T3 cells overexpressing T.Tn; experiment: MTT cell viability, T.Tn overexpressing cells vs parental line; details: T.Tn high-expressing cells / parental cell line, 3 to 4 days
Protocol: as §1, §2, §3, §4, §5, §6, §7, §8, §9, §10, §11, §12, §13, §14

[5] = system: NIH3T3 cells overexpressing p53(wt); experiment: MTT cell viability, p53(wt) overexpressing cells vs parental line; details: p53(wt) high-expressing cells / parental cell line, 3 to 4 days
Protocol: as §1, §2, §3, §4, §5, §6, §7, §8, §9, §10, §11, §12, §13, §14

[6] = system: NIH3T3 cells overexpressing ERK-DN; experiment: MTT cell viability, ERK-DN overexpressing cells vs parental line; details: ERK-DN high-expressing cells / parental cell line, 3 to 4 days
Protocol: as §1, §2, §3, §4, §5, §6, §7, §8, §9, §10, §11, §12, §13, §14

[7] = system: NIH3T3 cells overexpressing C/EBPb; experiment: MTT cell viability, C/EBPb overexpressing cells vs parental line; details: C/EBPb high-expressing cells / parental cell line, 3 to 4 days
Protocol: as §1, §2, §3, §4, §5, §6, §7, §8, §9, §10, §11, §12, §13, §14

Molecule	logarithmic value of ratio of IC40 values [1]	logarithmic value of ratio of IC40 values [2]	logarithmic value of ratio of IC40 values [3]	logarithmic value of ratio of IC40 values [4]	logarithmic value of ratio of IC40 values [5]	logarithmic value of ratio of IC40 values [6]	logarithmic value of ratio of IC40 values [7]
Nc1nc2nc[nH]c2c(=S)[nH]1 [6-TG, 6-thioguanine]	0.41	0.62	0.00	0.00			
CNc1ccc2oc(C[C@H]3O[C@@]4(CC[C@H]3C)O[C@H]([C@H](C)C(=O)c3ccc[nH]3)[C@H](C)C[C@H]4C)nc2c1C(=O)O [A23187]	0.03	0.18	0.00	−0.22	0.30	0.00	0.25
CCCC[C@@H](C=O)NC(=O)[C@H](CC(C)C)NC(=O)[C@H](CC(C)C)NC(C)=O [ALLN] (Ac-Leu-Leu-[Nle]-aldehyde)	0.00	0.20	0.00	0.48	0.18	0.00	0.31
CC(=O)OCOC(=O)CN(CC(=O)OCOC(C)=O)c1ccccc1OCCOc1ccccc1N(CC(=O)OCOC(C)=O)CC(=O)OCOC(C)=O [BAPTA-AM]	0.09	0.18	−0.62	0.11	0.00	0.12	0.81
C[C@@H]1C[C@@H]([C@H](O)CC2CC(=O)NC(=O)C2)C(=O)[C@@H](C)C1 [CHX, cycloheximide]	0.22	−0.09	0.00	0.00	0.85	0.08	0.37
O=CN/C=C/c1cc(O)ccc1O [Erbstatin, erbstatin]	−0.02	0.21	0.11	0.48	0.17	0.13	0.48
C=C[C@@]1(C)CC(=O)[C@]2(O)[C@@]3(C)[C@@H](O)CCC(C)(C)[C@@H]3[C@H](O)[C@H](OC(C)=O)[C@@]2(C)O1 [Forskolin, forskolin]	−0.36	0.43	0.00	0.53	0.98	0.08	0.93
CN(C)CCCn1cc(C2=C(c3c[nH]c4ccccc34)C(=O)NC2=O)c2ccccc21 [GF109203X]			0.00	−0.10	0.62	0.48	
O=c1c(-c2ccc(O)cc2)coc2cc(O)cc(O)c12 [Genistein, genistein]	0.00	0.23	−0.43	−0.25	0.26	0.00	0.19
CO[C@H]1[C@@H](OC)C[C@H](C)[C@@H](OC)C2=CC(=O)C=C(NC(=O)/C(C)=C/C=C\[C@H](OC)[C@@H](OC(N)=O)/C(C)=C/[C@@H]1C)C2=O [HMA, herbimycin A]	−0.10	0.51	0.00	0.00	−0.22	0.00	0.45
COC(=O)[C@@]1(O)C[C@H]2O[C@]1(C)n1c3ccccc3c3c4c(c5c6ccccc6n2c5c31)C(=O)NC4 [K252a]	0.28	0.10	−0.48	0.00	0.05	0.05	0.25
CCCC[C@@H](C)/C=C(C)/C=C(\C)C(=O)NC1=C[C@@](O)(/C=C/C=C/C=C/C(=O)NC2=C(O)CCC2=O)[C@@H]2O[C@@H]2C1=O [Manumycin, manumycin]	−0.13	0.03	0.00	0.28	0.12	−0.05	0.47
O=[As]O [NaAsO2, sodium arsenite]	0.00	0.02	−0.40	−0.05	0.20	0.16	0.41
C=C1[C@@H](O)[C@@H]2O[C@]3(CC[C@H](/C=C/[C@@H](C)[C@@H]4CC(C)=C[C@@]5(O[C@H](C[C@@](C)(O)C(=O)O)CC[C@H]5O)O4)O3)CC[C@H]2O[C@@H]1[C@@H](O)C[C@H](C)[C@H]1O[C@@]2(CCCCO2)CC[C@H]1C [OA, okadaic acid]	0.00	0.14	0.12	−0.16	−0.05	0.00	0.21
C[C@@H]1O[C@@H](O[C@H]2C[C@@H](O)[C@]3(CO)[C@H]4[C@H](O)C[C@]5(C)[C@@H](C6=CC(=O)OC6)CC[C@]5(O)[C@@H]4CC[C@]3(O)C2)[C@H](O)[C@H](O)[C@H]1O [Ouabain, ouabain]	0.45	0.60	0.00	0.28		0.48	0.00
CN[C@@H]1C[C@H]2O[C@@](C)([C@@H]1OC)n1c3ccccc3c3c4c(c5c6ccccc6n2c5c31)C(=O)NC4 [Staurosporine]	0.14	−0.04			0.07		−0.23
C=C[C@]1(C)CC[C@@H](C(=C)C)C[C@H]1C(=C)C [b-elemene, β-elemene]			0.00	−0.14	0.00	0.33	0.50
CC(C)(C)C(=O)Oc1ccc(S(=O)(=O)Nc2ccccc2C(=O)NCC(=O)O)cc1 [compound 5046]		0.35					0.17
sodium vanadate	−0.12	0.01	−0.02	0.46	0.00	0.00	
